Here are results for 8 cell lines from the supplement of paper PMC10307832.

Test in all cases: relative viability (nuclei count vs DMSO), 5 days (fraction); higher = more cells survive
Compound in the assay “AZ628 + Dasatinib”: CC1=C(C=C(C=C1)NC(=O)C2=CC(=CC=C2)C(C)(C)C#N)NC3=CC4=C(C=C3)N=CN(C4=O)C [AZ628] + Cc1nc(Nc2ncc(C(=O)Nc3c(C)cccc3Cl)s2)cc(N2CCN(CCO)CC2)n1 [Dasatinib] (partner 0.075 µM)
In a few lines: (§1)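 Each reported value is a median over duplicate plates. It expresses relative viability: treated-well nuclei count divided by vehicle-well nuclei count. Lung cancer cell lines in 1536-well plates were dosed by pin tool a day after seeding, alone with one drug or with a fixed anchor-drug dose plus five library-drug doses (not always all listed) in √10 steps, and nuclei were counted after 5 days.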

Compound in the assay “AZ628 + Phenformin”: CC1=C(C=C(C=C1)NC(=O)C2=CC(=CC=C2)C(C)(C)C#N)NC3=CC4=C(C=C3)N=CN(C4=O)C [AZ628] + N=C(N)NC(=N)NCCc1ccccc1 [Phenformin] (partner 250 µM)
The procedure, abridged:
as §1

Compound in assay [1]: C[As](C)SC[C@H](NC(=O)CC[C@H](N)C(=O)O)C(=O)NCC(=O)O [Darinaparsin] + Nc1ncn([C@H]2C[C@H](O)[C@@H](CO)O2)c(=O)n1 [Decitabine] (partner 2 µM)
The procedure, abridged: as §1

Compound in the assay “AZ628 + AZD7762”: CC1=C(C=C(C=C1)NC(=O)C2=CC(=CC=C2)C(C)(C)C#N)NC3=CC4=C(C=C3)N=CN(C4=O)C [AZ628] + NC(=O)Nc1cc(-c2cccc(F)c2)sc1C(=O)N[C@H]1CCCNC1 [AZD7762] (partner 0.2 µM)
The procedure, abridged: as §1

As to SW 1573, the relative viability worked out at 0.535 with AZ628 + Dasatinib (first compound 0.08 µM); 0.422 with AZ628 + Dasatinib (first compound 0.253 µM); 0.381 with AZ628 + Dasatinib (first compound 0.8 µM); 0.434 with AZ628 + Dasatinib (first compound 2.53 µM); 0.302 with AZ628 + Dasatinib (first compound 8 µM); 0.322 with AZ628 + Phenformin (first compound 0.08 µM). The relative viability with AZ628 + Phenformin (first compound 0.253 µM) was 0.308; with AZ628 + Phenformin (first compound 0.8 µM), 0.215; with AZ628 + Phenformin (first compound 2.53 µM), 0.288; with AZ628 + Phenformin (first compound 8 µM), 0.2; in assay [1] (first compound 0.08 µM), 0.564; in assay [1] (first compound 0.8 µM) it was 0.468. Further, the figures for the relative viability in assay [1] (first compound 2.53 µM) and in assay [1] (first compound 8 µM) were 0.61 and 0.555, respectively.

For NCI-H358, the relative viability came out at 0.184 with AZ628 + Dasatinib (first compound 0.08 µM); 0.124 with AZ628 + Dasatinib (first compound 0.253 µM); 0.136 in the assay with AZ628 + Dasatinib (first compound 0.8 µM); 0.161 in the assay with AZ628 + Dasatinib (first compound 2.53 µM); 0.1 in the assay with AZ628 + Dasatinib (first compound 8 µM); 0.32 with AZ628 + Phenformin (first compound 0.08 µM). For the same cell line, the relative viability was determined as 0.208 with AZ628 + Phenformin (first compound 0.253 µM); 0.216 in the assay with AZ628 + Phenformin (first compound 0.8 µM); 0.222 with AZ628 + Phenformin (first compound 2.53 µM); 0.216 with AZ628 + Phenformin (first compound 8 µM); 0.499 with AZ628 + AZD7762 (first compound 0.08 µM); 0.405 with AZ628 + AZD7762 (first compound 0.253 µM). In addition, the relative viability with AZ628 + AZD7762 (first compound 0.8 µM) came to 0.367; with AZ628 + AZD7762 (first compound 2.53 µM) it was 0.412; in the assay with AZ628 + AZD7762 (first compound 8 µM) it was 0.302; in assay [1] (first compound 0.08 µM) it was 0.189; in assay [1] (first compound 0.8 µM), 0.21; in assay [1] (first compound 2.53 µM), 0.231. In assay [1] (first compound 8 µM), the relative viability was 0.193.

With ChaGo-K-1, the relative viability came out at 0.585 in the assay with AZ628 + Dasatinib (first compound 0.08 µM); 0.501 with AZ628 + Dasatinib (first compound 0.253 µM); 0.287 in the assay with AZ628 + Dasatinib (first compound 0.8 µM); 0.547 with AZ628 + Dasatinib (first compound 2.53 µM); 0.564 in the assay with AZ628 + Dasatinib (first compound 8 µM); 0.559 in the assay with AZ628 + Phenformin (first compound 0.08 µM). In addition, the relative viability was found to be 0.464 in the assay with AZ628 + Phenformin (first compound 0.253 µM); 0.398 with AZ628 + Phenformin (first compound 0.8 µM); 0.459 in the assay with AZ628 + Phenformin (first compound 2.53 µM); 0.373 with AZ628 + Phenformin (first compound 8 µM); 0.935 with AZ628 + AZD7762 (first compound 0.08 µM); 0.821 in the assay with AZ628 + AZD7762 (first compound 0.253 µM). For the same cell line, the relative viability with AZ628 + AZD7762 (first compound 0.8 µM) stood at 0.805; with AZ628 + AZD7762 (first compound 2.53 µM), 0.853; in the assay with AZ628 + AZD7762 (first compound 8 µM), 0.663; in assay [1] (first compound 0.08 µM), 0.464; in assay [1] (first compound 0.8 µM), 0.499; in assay [1] (first compound 2.53 µM) it was 0.506. Also, the relative viability in assay [1] (first compound 8 µM) is 0.577.

201T: the relative viability stood at 0.592 with AZ628 + Dasatinib (first compound 0.08 µM); 0.533 with AZ628 + Dasatinib (first compound 0.253 µM); 0.53 in the assay with AZ628 + Dasatinib (first compound 0.8 µM); 0.513 with AZ628 + Dasatinib (first compound 2.53 µM); 0.471 in the assay with AZ628 + Dasatinib (first compound 8 µM); 0.507 in the assay with AZ628 + Phenformin (first compound 0.08 µM). The relative viability in the assay with AZ628 + Phenformin (first compound 0.253 µM) stood at 0.455; with AZ628 + Phenformin (first compound 0.8 µM) it was 0.245; in the assay with AZ628 + Phenformin (first compound 2.53 µM), 0.438; with AZ628 + Phenformin (first compound 8 µM), 0.445; with AZ628 + AZD7762 (first compound 0.08 µM), 0.523; with AZ628 + AZD7762 (first compound 0.253 µM), 0.541. Further, the relative viability in the assay with AZ628 + AZD7762 (first compound 0.8 µM) was 0.57; with AZ628 + AZD7762 (first compound 2.53 µM), 0.462; in the assay with AZ628 + AZD7762 (first compound 8 µM), 0.45; in assay [1] (first compound 0.08 µM) it was 0.853; in assay [1] (first compound 0.8 µM), 0.83; in assay [1] (first compound 2.53 µM), 0.875. Also, the relative viability in assay [1] (first compound 8 µM) was found to be 0.861.

Take HCC-44: the relative viability with AZ628 + Phenformin (first compound 0.08 µM) turned out to be 0.218; with AZ628 + Phenformin (first compound 0.253 µM) it was 0.0997; with AZ628 + Phenformin (first compound 0.8 µM), 0.136; in the assay with AZ628 + Phenformin (first compound 2.53 µM), 0.115; in the assay with AZ628 + Phenformin (first compound 8 µM), 0.203; with AZ628 + AZD7762 (first compound 0.08 µM) it was 1.01. Moreover, the relative viability amounted to 0.945 with AZ628 + AZD7762 (first compound 0.253 µM); 1.08 with AZ628 + AZD7762 (first compound 0.8 µM); 1.04 with AZ628 + AZD7762 (first compound 2.53 µM); 1.24 with AZ628 + AZD7762 (first compound 8 µM); 1.05 in assay [1] (first compound 0.08 µM); 0.966 in assay [1] (first compound 0.8 µM). The relative viability worked out at 0.924 in assay [1] (first compound 2.53 µM) and 0.977 in assay [1] (first compound 8 µM).

Consider EMC-BAC-2, for which the relative viability with AZ628 + Dasatinib (first compound 0.08 µM) turned out to be 0.303; in the assay with AZ628 + Dasatinib (first compound 0.253 µM) it was 0.321; with AZ628 + Dasatinib (first compound 0.8 µM), 0.383; in the assay with AZ628 + Dasatinib (first compound 2.53 µM) it was 0.373; with AZ628 + Dasatinib (first compound 8 µM), 0.412; with AZ628 + Phenformin (first compound 0.08 µM), 0.584. Further, the relative viability with AZ628 + Phenformin (first compound 0.253 µM) is 0.57; with AZ628 + Phenformin (first compound 0.8 µM) it was 0.432; with AZ628 + Phenformin (first compound 2.53 µM) it was 0.602; in the assay with AZ628 + Phenformin (first compound 8 µM), 0.505; in the assay with AZ628 + AZD7762 (first compound 0.08 µM), 1.16; in the assay with AZ628 + AZD7762 (first compound 0.253 µM), 1.09. Also, the relative viability came to 1.18 with AZ628 + AZD7762 (first compound 0.8 µM); 1.13 in the assay with AZ628 + AZD7762 (first compound 2.53 µM); 1.28 with AZ628 + AZD7762 (first compound 8 µM); 0.916 in assay [1] (first compound 0.08 µM); 0.907 in assay [1] (first compound 0.8 µM); 1.18 in assay [1] (first compound 2.53 µM). The relative viability in assay [1] (first compound 8 µM) was 0.969.

NCI-H2405: the relative viability worked out at 0.175 with AZ628 + Dasatinib (first compound 0.08 µM); 0.201 with AZ628 + Dasatinib (first compound 0.253 µM); 0.189 in the assay with AZ628 + Dasatinib (first compound 0.8 µM); 0.172 with AZ628 + Dasatinib (first compound 2.53 µM); 0.23 with AZ628 + Dasatinib (first compound 8 µM); 0.153 with AZ628 + Phenformin (first compound 0.08 µM). In addition, the relative viability in the assay with AZ628 + Phenformin (first compound 0.253 µM) stood at 0.202; in the assay with AZ628 + Phenformin (first compound 0.8 µM), 0.229; with AZ628 + Phenformin (first compound 2.53 µM), 0.235; with AZ628 + Phenformin (first compound 8 µM), 0.24; with AZ628 + AZD7762 (first compound 0.08 µM) it was 0.54; with AZ628 + AZD7762 (first compound 0.253 µM), 0.387. For the same cell line, the relative viability in the assay with AZ628 + AZD7762 (first compound 0.8 µM) is 0.498; with AZ628 + AZD7762 (first compound 2.53 µM), 0.419; with AZ628 + AZD7762 (first compound 8 µM) it was 0.458; in assay [1] (first compound 0.08 µM), 0.802; in assay [1] (first compound 0.8 µM), 0.716; in assay [1] (first compound 2.53 µM) it was 0.663. Also, the relative viability in assay [1] (first compound 8 µM) is 0.735.

With NCI-H2023, the relative viability was 0.617 in the assay with AZ628 + Dasatinib (first compound 0.08 µM); 0.647 with AZ628 + Dasatinib (first compound 0.253 µM); 0.444 in the assay with AZ628 + Dasatinib (first compound 0.8 µM); 0.436 with AZ628 + Dasatinib (first compound 2.53 µM); 0.396 in the assay with AZ628 + Dasatinib (first compound 8 µM); 0.387 with AZ628 + Phenformin (first compound 0.08 µM). The relative viability with AZ628 + Phenformin (first compound 0.253 µM) is 0.392; with AZ628 + Phenformin (first compound 0.8 µM), 0.368; with AZ628 + Phenformin (first compound 2.53 µM) it was 0.381; with AZ628 + Phenformin (first compound 8 µM), 0.293; in assay [1] (first compound 0.08 µM), 0.219; in assay [1] (first compound 0.8 µM) it was 0.219. Also, the relative viability turned out to be 0.196 in assay [1] (first compound 2.53 µM) and 0.216 in assay [1] (first compound 8 µM).
